Laboratory results reported in patent US20100267561A1, “HERBICIDAL PYRIDAZINONE DERIVATIVES” (priority 2007, published 2010).
Where two headings read alike, the source gives them in different places.

Legend:
Assay in all cases: Test B pre-/postemergence plant response
Assay type in all cases: in vivo
[1] = system: Italian ryegrass (Lolium multiflorum); settings: for pest or weed control at 31 g/ha / pest or weed control at 62 g/ha: Lolium multiflorum, read-out: Plant response rating, Ryegrass, Italian; for pest or weed control at 31 g/ha: 31 g ai/ha; for pest or weed control at 62 g/ha: 62 g ai/ha, 100 complete control
Outline: (§1)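 Seeds were sown and sprayed preemergence, while plants at 2 to 18 cm (1- to 4-leaf stage) got postemergence sprays. Compounds were formulated in a non-phytotoxic solvent mixture with surfactant. After 13 to 15 days in a greenhouse, injury was rated visually against untreated controls, 0 (no effect) to 100 (complete control).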

[2] = system: bermudagrass (Cynodon dactylon); settings: for pest or weed control at 31 g/ha: 31 g ai/ha; for pest or weed control at 62 g/ha: 62 g ai/ha, 100 complete control
Outline: as §1

[3] = system: cocklebur (Xanthium strumarium); settings: for pest or weed control at 31 g/ha: 31 g ai/ha; for pest or weed control at 62 g/ha: 62 g ai/ha, 100 complete control
Outline: as §1

[4] = system: common (oilseed) sunflower (Helianthus annuus); settings: Preemergence; for Sunflower plant response rating: scale 0 to 100
Outline: as §1

[5] = system: common ragweed (Ambrosia elation); settings: for pest or weed control at 31 g/ha / pest or weed control at 62 g/ha: Ambrosia, read-out: Plant response rating, Ragweed; for pest or weed control at 31 g/ha: 31 g ai/ha; for pest or weed control at 62 g/ha: 62 g ai/ha, 100 complete control
Outline: as §1

[6] = system: goosegrass (Eleusine indica); settings: for pest or weed control at 31 g/ha / pest or weed control at 62 g/ha: Eleusine indica, read-out: Plant response rating, Goosegrass; for pest or weed control at 31 g/ha: 31 g ai/ha; for pest or weed control at 62 g/ha: 62 g ai/ha, 100 complete control
Outline: as §1

[7] = system: johnsongrass (Sorghum halepense); settings: for pest or weed control at 31 g/ha / pest or weed control at 62 g/ha: Sorghum halepense, read-out: Plant response rating, Johnsongrass; for pest or weed control at 31 g/ha: 31 g ai/ha; for pest or weed control at 62 g/ha: 62 g ai/ha, 100 complete control
Outline: as §1

kochia (Kochia scoparia) = settings: for Kochia plant response rating: postemergence, 0-100 scale; for Plant response rating, Kochia: Postemergence
Outline: as §1

[8] = system: lambsquarters (Chenopodium album); settings: for pest or weed control at 31 g/ha / pest or weed control at 62 g/ha: Chenopodium album, read-out: Plant response rating, Lambsquarters; for pest or weed control at 31 g/ha: 31 g ai/ha; for pest or weed control at 62 g/ha: 62 g ai/ha, 100 complete control
Outline: as §1

[9] = system: morningglory (Ipomoea coccinea); settings: for pest or weed control at 31 g/ha / pest or weed control at 62 g/ha: Ipomoea, read-out: Plant response rating, Morningglory; for pest or weed control at 31 g/ha: 31 g ai/ha; for pest or weed control at 62 g/ha: 62 g ai/ha, 100 complete control
Outline: as §1

soybean (Glycine max) = settings: for plant injury at 31 g/ha / plant injury at 62 g/ha: Glycine max, read-out: Plant response rating, Soybean; for plant injury at 31 g/ha: 31 g ai/ha; for plant injury at 62 g/ha: 62 g ai/ha, 100 complete control
Outline: as §1

[10] = system: surinam grass (Brachiaria decumbens); settings: for pest or weed control at 31 g/ha / pest or weed control at 62 g/ha: Urochloa decumbens, read-out: Plant response rating, Surinam Grass; for pest or weed control at 31 g/ha: 31 g ai/ha; for pest or weed control at 62 g/ha: 62 g ai/ha, 100 complete control
Outline: as §1

[11] = system: velvetleaf (Abutilon theophrasti); settings: for pest or weed control at 31 g/ha / pest or weed control at 62 g/ha: Abutilon theophrasti, read-out: Plant response rating, Velvetleaf; for pest or weed control at 31 g/ha: 31 g ai/ha; for pest or weed control at 62 g/ha: 62 g ai/ha, 100 complete control
Outline: as §1

[12] = system: wheat (Triticum aestivum); settings: for plant injury at 31 g/ha / plant injury at 62 g/ha: Triticum aestivum, read-out: Plant response rating, Wheat; for plant injury at 31 g/ha: 31 g ai/ha; for plant injury at 62 g/ha: 62 g ai/ha, 100 complete control
Outline: as §1

[13] = 8 g ai/ha, postemergence, 0-100 scale
[14] = 16 g ai/ha, postemergence, 0-100 scale
[15] = post-emergence, Postemergence, scale 0 to 100
[16] = post-emergence, Postemergence, scale 0 to 100, 0 no effect
[17] = pre-emergence, Preemergence, scale 0 to 100 (0 no effect, 100 complete control)
[18] = pre-emergence, Preemergence, 0 to 100 scale, 0 no effect
[19] = Preemergence, 8 g ai/ha, scale 0 to 100
[20] = Preemergence, 16 g ai/ha, scale 0 to 100

Cc1nn(C)c(=O)c(-n2nc(-c3ccc(C(F)(F)F)cc3)cc2C)c1O [Compound 75, 5-hydroxy-2,6-dimethyl-4-[5-methyl-3-[4-(trifluoromethyl)phenyl]-1H-pyrazol-1-yl]-3(2H)-pyridazinone]
Ryegrass, Italian plant response rating [1, 13]: 30
Ryegrass, Italian plant response rating [1, 14]: 50
pest or weed control at 31 g/ha [1, 15]: 95%
pest or weed control at 62 g/ha [1, 16]: 98%
pest or weed control at 31 g/ha [1, 17]: 98%
pest or weed control at 62 g/ha [1, 18]: 98%
Ryegrass, Italian plant response rating [1, 19]: 0
Ryegrass, Italian plant response rating [1, 20]: 30
Bermudagrass plant response rating [2, 13]: 65
pest or weed control at 16 g/ha ([2]; Cynodon dactylon, post-emergence, Postemergence, 16 g ai/ha, scale 0 to 100, read-out: Plant response rating, Bermudagrass): 80%
pest or weed control at 31 g/ha ([2]; Cynodon dactylon, post-emergence, Postemergence, scale 0 to 100, read-out: Plant response rating, Bermudagrass): 85%
pest or weed control at 62 g/ha ([2]; Cynodon dactylon, post-emergence, Postemergence, scale 0 to 100, 0 no effect, read-out: Plant response rating, Bermudagrass): 90%
pest or weed control at 31 g/ha ([2]; Cynodon dactylon, pre-emergence, Preemergence, scale 0 to 100 (0 no effect, 100 complete control), read-out: Plant response rating, Bermudagrass): 65%
pest or weed control at 62 g/ha ([2]; Cynodon dactylon, pre-emergence, Preemergence, 0 to 100 scale, 0 no effect, read-out: Plant response rating, Bermudagrass): 98%
Bermudagrass plant response rating ([2]; Preemergence, 16 g ai/ha, scale 0 to 100 (0 no effect, 100 complete control)): 0
Cocklebur plant response rating [3, 13]: 0
Cocklebur plant response rating [3, 19]: 0
Cocklebur plant response rating [3, 20]: 0
pest or weed control at 16 g/ha ([3]; Xanthium strumarium, post-emergence, Postemergence, 16 g ai/ha, scale 0 to 100, read-out: Plant response rating, Cocklebur): 0%
pest or weed control at 31 g/ha ([3]; Xanthium strumarium, post-emergence, Postemergence, scale 0 to 100, read-out: Plant response rating, Cocklebur): 0%
pest or weed control at 62 g/ha ([3]; Xanthium strumarium, post-emergence, Postemergence, scale 0 to 100, 0 no effect, read-out: Plant response rating, Cocklebur): 0%
pest or weed control at 31 g/ha ([3]; Xanthium strumarium, pre-emergence, Preemergence, scale 0 to 100 (0 no effect, 100 complete control), read-out: Plant response rating, Cocklebur): 0%
pest or weed control at 62 g/ha ([3]; Xanthium strumarium, pre-emergence, Preemergence, 0 to 100 scale, 0 no effect, read-out: Plant response rating, Cocklebur): 0%
pest or weed control at 31 g/ha ([4]; Helianthus annuus, pre-emergence, 31 g ai/ha, scale 0 to 100 (0 no effect, 100 complete control), read-out: Plant response rating, Sunflower): 0%
pest or weed control at 62 g/ha ([4]; Helianthus annuus, pre-emergence, 62 g ai/ha, 0 to 100 scale, 0 no effect, 100 complete control, read-out: Plant response rating, Sunflower): 0%
Sunflower plant response rating ([4]; 8 g ai/ha): 0
Sunflower plant response rating ([4]; 16 g ai/ha): 0
Ragweed plant response rating [5, 13]: 0
Ragweed plant response rating [5, 14]: 0
pest or weed control at 31 g/ha [5, 15]: 0%
pest or weed control at 62 g/ha [5, 16]: 0%
pest or weed control at 31 g/ha [5, 17]: 0%
pest or weed control at 62 g/ha [5, 18]: 0%
Ragweed plant response rating [5, 19]: 0
Ragweed plant response rating [5, 20]: 0
Goosegrass plant response rating [6, 13]: 30
Goosegrass plant response rating [6, 14]: 50
pest or weed control at 31 g/ha [6, 15]: 60%
pest or weed control at 62 g/ha [6, 16]: 75%
pest or weed control at 31 g/ha [6, 17]: 90%
pest or weed control at 62 g/ha [6, 18]: 98%
Goosegrass plant response rating [6, 19]: 50
Goosegrass plant response rating [6, 20]: 65
Johnsongrass plant response rating [7, 13]: 75
Johnsongrass plant response rating [7, 14]: 80
Johnsongrass plant response rating [7, 19]: 0
Johnsongrass plant response rating [7, 20]: 75
pest or weed control at 31 g/ha [7, 15]: 98%
pest or weed control at 62 g/ha [7, 16]: 100%
pest or weed control at 31 g/ha [7, 17]: 85%
pest or weed control at 62 g/ha [7, 18]: 95%
Kochia plant response rating (kochia (Kochia scoparia); 8 g ai/ha): 0
Kochia plant response rating (kochia (Kochia scoparia); 16 g ai/ha): 0
Plant response rating, Kochia (kochia (Kochia scoparia); 31 g ai/ha, scale 0 to 100): 0
Plant response rating, Kochia (kochia (Kochia scoparia); 62 g ai/ha, scale 0 to 100, 0 no effect, 100 complete control): 0
Lambsquarters plant response rating [8, 13]: 0
Lambsquarters plant response rating [8, 14]: 0
pest or weed control at 31 g/ha [8, 15]: 0%
pest or weed control at 62 g/ha [8, 16]: 0%
pest or weed control at 31 g/ha [8, 17]: 0%
pest or weed control at 62 g/ha [8, 18]: 0%
Lambsquarters plant response rating [8, 19]: 0
Lambsquarters plant response rating [8, 20]: 0
Morningglory plant response rating [9, 13]: 0
Morningglory plant response rating [9, 14]: 0
pest or weed control at 31 g/ha [9, 15]: 0%
pest or weed control at 62 g/ha [9, 16]: 0%
pest or weed control at 31 g/ha [9, 17]: 0%
pest or weed control at 62 g/ha [9, 18]: 0%
Morningglory plant response rating [9, 19]: 0
Morningglory plant response rating [9, 20]: 0
Soybean plant response rating (soybean (Glycine max); [13]): 0
Soybean plant response rating (soybean (Glycine max); [14]): 0
plant injury at 31 g/ha (soybean (Glycine max); [15]): 0%
plant injury at 62 g/ha (soybean (Glycine max); [16]): 0%
plant injury at 31 g/ha (soybean (Glycine max); [17]): 0%
plant injury at 62 g/ha (soybean (Glycine max); [18]): 0%
Soybean plant response rating (soybean (Glycine max); [19]): 0
Soybean plant response rating (soybean (Glycine max); [20]): 0
Surinam Grass plant response rating [10, 13]: 60
Surinam Grass plant response rating [10, 14]: 70
Surinam Grass plant response rating [10, 19]: 45
Surinam Grass plant response rating [10, 20]: 50
pest or weed control at 31 g/ha [10, 15]: 75%
pest or weed control at 62 g/ha [10, 16]: 85%
pest or weed control at 31 g/ha [10, 17]: 80%
pest or weed control at 62 g/ha [10, 18]: 98%
Velvetleaf plant response rating [11, 13]: 0
Velvetleaf plant response rating [11, 14]: 0
pest or weed control at 31 g/ha [11, 15]: 0%
pest or weed control at 62 g/ha [11, 16]: 0%
pest or weed control at 31 g/ha [11, 17]: 0%
pest or weed control at 62 g/ha [11, 18]: 0%
Velvetleaf plant response rating [11, 19]: 0
Velvetleaf plant response rating [11, 20]: 0
Wheat plant response rating [12, 13]: 0
Wheat plant response rating [12, 14]: 20
Wheat plant response rating [12, 20]: 0
plant injury at 31 g/ha [12, 15]: 70%
plant injury at 62 g/ha [12, 16]: 85%
plant injury at 31 g/ha [12, 17]: 20%
plant injury at 62 g/ha [12, 18]: 45%
